≈ marks a conversion by molar mass, not a printed value.
Key:
Assay in all cases: Bacterial susceptibility testing in liquid media (MIC)
Type in all cases: cell-based
HIN446 = conditions: strain HIN446; lowest concentration reducing growth by 80% or more, 37 degrees C., 24 hrs
Procedure: (§1) Compounds were tested for antimicrobial activity by susceptibility testing in liquid media. Compounds were dissolved in dimethylsulfoxide and tested in 10 doubling dilutions in the susceptibility assays. The organisms used in the assay were grown overnight on suitable agar media and then suspended in a liquid medium appropriate for the growth of the organism. The suspension was a 0.5 McFarland and a further 1 in 10 dilution was made into the same liquid medium to prepare the final organism suspension in 100 μL. Plates were incubated under appropriate conditions at 37 degrees C. for 24 hrs prior to reading. The Minimum Inhibitory Concentration was determined as the lowest drug concentration able to reduce growth by 80% or more.

Streptococcus pneumoniae = conditions: lowest concentration reducing growth by 80% or more, 37 degrees C., 24 hrs; for MIC SPN548: strain SPN548
Procedure: as §1

SAU516 = conditions: strain SAU516; lowest concentration reducing growth by 80% or more, 37 degrees C., 24 hrs
Procedure: as §1

SMILES	MIC HIN446 (HIN446) [µg/mL]	MIC SPN548 (Streptococcus pneumoniae) [µg/mL]	MIC SAU516 (SAU516) [µg/mL]	MIC (Streptococcus pneumoniae; against Streptococcus pneumoniae) [µg/mL]
Cc1[nH]c(C(=O)NC2CN(c3ncc(C(=O)O)s3)C2)c(Cl)c1Cl [Example 4, 2-(3-{[(3,4-Dichloro-5-methyl-1H-pyrrol-2-yl)carbonyl]amino}azetidin-1-yl)-1,3-thiazole-5-carboxylic acid]	2 (≈ 5.33 µM)	4 (≈ 10.7 µM)	32 (≈ 85.3 µM)	
Cc1nc(N2CC(NC(=O)c3[nH]c(C)c(Cl)c3Cl)C2)sc1C(=O)O [Example 5, 2-(3-{[(3,4-Dichloro-5-methyl-1H-pyrrol-2-yl)carbonyl]amino}azetidin-1-yl)-4-methyl-1,3-thiazole-5-carboxylic acid]	0.5 (≈ 1.28 µM)	0.5 (≈ 1.28 µM)	4 (≈ 10.3 µM)	
CONC(=O)c1cnc(N2CC(NC(=O)c3[nH]c(C)c(Cl)c3Cl)C2)s1 [Example 8, 2-(3-{[(3,4-Dichloro-5-methyl-1H-pyrrol-2-yl)carbonyl]amino}azetidin-1-yl)-N-methoxy-1,3-thiazole-5-carboxamide]	8 (≈ 19.8 µM)	1 (≈ 2.47 µM)	8 (≈ 19.8 µM)	
CONC(=O)c1cc(N2CC(NC(=O)c3[nH]c(C)c(Cl)c3Cl)C2)nc(Cl)n1 [Example 9, 2-Chloro-6-(3-{[(3,4-dichloro-5-methyl-1H-pyrrol-2-yl)carbonyl]amino}azetidin-1-yl)-N-methoxypyrimidine-4-carboxamide]	4 (≈ 9.22 µM)	2 (≈ 4.61 µM)	2 (≈ 4.61 µM)	2 (≈ 4.61 µM)

From patent publication US20090253671A1, “TRICYCLIC DERIVATIVES OF AZETIDINE AND PYRROLE WITH ANTIBACTERIAL ACTIVITY” (ASTRAZENECA AB, priority 2005, published 2009)
